Experimental data: US10407467B2, “Polymyxin derivatives and their use in combination therapy together with different antibiotics” (priority 2013, dated 2019)
Structures can show the parent of a compound that is named as a salt. Where two headings read alike, the source gives them in different places. Bridge positions count the residues as written; N and C are the ends. Square brackets hold non-standard residues; d marks the D form. Peptide text beside a SMILES is read from it. * marks the point of attachment. ξ: configuration not given here. Acetyl(2-(piperazin-1-yl)) = O=C(CN1CCNCC1)*; ξβ3hGly(cHex) = NC(CC(=O)*)C1CCCCC1; Thr(3ξ) = CC(O)[C@H](N)C(=O)O; X10 = NC1(CC(=O)*)CCCCC1; Dab = NCC[C@H](N)C(=O)O; Inp = O=C(O)C1CCNCC1

How the values were obtained:
Acinetobacter baumannii [1] = test: MIC, compound in combination with a second agent (broth microdilution); type: cell-based; conditions: 1:1 (wt:wt) combination with Rifampicin, MIC = total drug concentration; for MIC A. baumannii ATCC BAA-747: strain ATCC BAA-747; for MIC A. baumannii CCUG57249: strain CCUG57249; for MIC A. baumannii NCTC 13423: strain NCTC 13423; for MIC A. baumannii NCTC 13424: strain NCTC 13424
Procedure, shortened: (§1)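 Isolated colonies from an 18-24 hour Mueller-Hinton agar plate are suspended to the 0.5 McFarland standard, then tested against 1:1 w/w mixtures of compound and a second antibacterial such as rifampicin. Reported MICs represent total drug (both components).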

Escherichia coli [2] = test: as above; type: cell-based; conditions: 1:1 (wt:wt) combination with Rifampicin, MIC = total drug concentration; for MIC E. coli ATCC25922: strain ATCC25922; for MIC E. coli NCTC9001: strain NCTC9001
Procedure, shortened: as §1

Klebsiella pneumoniae [3] = test: as above; type: cell-based; conditions: 1:1 (wt:wt) combination with Rifampicin, MIC = total drug concentration; for MIC K. pneumoniae ATCC-BAA-2146: strain ATCC-BAA-2146; for MIC K. pneumoniae CCUG-59348: strain CCUG-59348; for MIC K. pneumoniae ATCC 4352: strain ATCC 4352
Procedure, shortened: as §1

Pseudomonas aeruginosa [4] = test: as above; type: cell-based; conditions: 1:1 (wt:wt) combination with Rifampicin, MIC = total drug concentration; for MIC P. aeruginosa ATCC 27853: strain ATCC 27853; for MIC P. aeruginosa ATCC CRM-9027: strain ATCC CRM-9027; for MIC P. aeruginosa ATCC-47: strain ATCC-47; for MIC P. aeruginosa CCUG 59626: strain CCUG 59626
Procedure, shortened: as §1

P. aeruginosa ATCC 27853 = conditions: for effect on thigh burdens: 2 or 4 mg/kg IV three times at 1, 3.5 and 6 hours post infection; for Log reduction from vehicle (CFU/g): ATCC 27853, in vivo, iv, 6 h
Acinetobacter baumannii [5] = test: MIC, sole activity (no second agent); type: cell-based; conditions: in the absence of Rifampicin; for MIC A. baumannii ATCCBAA-747: strain ATCCBAA-747; for MIC A. baumannii NCTC 13423: strain NCTC13423; for MIC A. baumannii ATCC13424: strain ATCC13424; for MIC A. baumannii CCUG57249: strain CCUG 57249
Procedure, shortened: (§2)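 Compound tested without a second agent in cation-adjusted MHB, up to four strains per species, inoculum at 0.5 McFarland from colonies grown 18-24 h on Mueller-Hinton agar. Run in duplicate, invalid beyond 2-fold disagreement, lower duplicate or modal repeat value given, expressed relative to Polymyxin B.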

Escherichia coli [6] = test: MIC, sole activity (no second agent); type: cell-based; conditions: in the absence of Rifampicin; for MIC E. coli NCTC9001: strain NCTC9001; for MIC E. coli ATCC25922: strain ATCC25922
Procedure, shortened: as §2

Klebsiella pneumoniae [7] = test: MIC, sole activity (no second agent); type: cell-based; conditions: in the absence of Rifampicin; for MIC K. pneumoniae ATCC 4352: strain ATCC 4352; for MIC K. pneumoniae ATCC-BAA2146: strain ATCC-BAA2146; for MIC K. pneumoniae CCUG-59348: strain CCUG-59348
Procedure, shortened: as §2

Pseudomonas aeruginosa [8] = test: MIC, sole activity (no second agent); type: cell-based; conditions: in the absence of Rifampicin; for MIC P. aeruginosa ATCC 27853: strain ATCC27853; for MIC P. aeruginosa ATCC-47: strain ATCC-47; for MIC P. aeruginosa ATCCCRM-9027: strain ATCCCRM-9027; for MIC P. aeruginosa CCUG 59626: strain CCUG 59626
Procedure, shortened: as §2

Row | MIC A. baumannii ATCC BAA-747 (Acinetobacter baumannii [1]) [micrograms/mL] | MIC A. baumannii CCUG57249 (Acinetobacter baumannii [1]) [micrograms/mL] | MIC A. baumannii NCTC 13423 (Acinetobacter baumannii [1]) [micrograms/mL] | MIC A. baumannii NCTC 13424 (Acinetobacter baumannii [1]) [micrograms/mL] | MIC E. coli ATCC25922 (Escherichia coli [2]) [micrograms/mL] | MIC E. coli NCTC9001 (Escherichia coli [2]) [micrograms/mL] | MIC K. pneumoniae ATCC-BAA-2146 (Klebsiella pneumoniae [3]) [micrograms/mL] | MIC K. pneumoniae CCUG-59348 (Klebsiella pneumoniae [3]) [micrograms/mL] | MIC P. aeruginosa ATCC 27853 (Pseudomonas aeruginosa [4]) [micrograms/mL] | MIC P. aeruginosa ATCC CRM-9027 (Pseudomonas aeruginosa [4]) [micrograms/mL] | MIC P. aeruginosa ATCC-47 (Pseudomonas aeruginosa [4]) [micrograms/mL] | MIC P. aeruginosa CCUG 59626 (Pseudomonas aeruginosa [4]) [micrograms/mL] | MIC K. pneumoniae ATCC 4352 (Klebsiella pneumoniae [3]) [micrograms/mL] | MIC A. baumannii ATCCBAA-747 (Acinetobacter baumannii [5]) [micrograms/mL] | MIC A. baumannii NCTC 13423 (Acinetobacter baumannii [5]) [micrograms/mL] | MIC E. coli NCTC9001 (Escherichia coli [6]) [micrograms/mL] | MIC K. pneumoniae ATCC 4352 (Klebsiella pneumoniae [7]) [micrograms/mL] | MIC K. pneumoniae ATCC-BAA2146 (Klebsiella pneumoniae [7]) [micrograms/mL] | MIC K. pneumoniae CCUG-59348 (Klebsiella pneumoniae [7]) [micrograms/mL] | MIC P. aeruginosa ATCC-47 (Pseudomonas aeruginosa [8]) [micrograms/mL] | SMILES | other results
1 | ≤0.06 | ≤0.06 | 0.125 | – | 0.125 | 0.5 | 1 | 4 | 0.25 | 0.25 | 0.5 | 0.5 | 0.125 | 4 | 8 | >32 | 2 | >32 | >32 | 32 | CC(C)C[C@@H]1NC(=O)[C@@H](Cc2ccccc2)NC(=O)[C@H](CCN)NC(=O)[C@@H](NC(=O)[C@H](CCCCN)NC(=O)[C@@H](NC(=O)C2CCNCC2)C(C)O)CCNC(=O)[C@H](C(C)O)NC(=O)[C@H](CCN)NC(=O)[C@H](CCN)NC1=O (stereo partly drawn) [Example 51, Piperidin-4-yl carbonyl-L-Thr-L-Lys-polymyxin B heptapeptide, TFA salt] (H-[Inp][Thr(3ξ)]K[Dab][Dab][dF]L[Dab][Dab][Thr(3ξ)]; lactam 4-C) | MIC A. baumannii ATCC13424 (Acinetobacter baumannii [5]): 4 micrograms/mL; MIC A. baumannii CCUG57249 (Acinetobacter baumannii [5]): 4 micrograms/mL; MIC E. coli ATCC25922 (Escherichia coli [6]): >32 micrograms/mL; MIC P. aeruginosa ATCCCRM-9027 (Pseudomonas aeruginosa [8]): 0.125 micrograms/mL; MIC P. aeruginosa CCUG 59626 (Pseudomonas aeruginosa [8]): 0.25 micrograms/mL
2 | – | – | – | – | ≤0.06 | – | 1 | 8 | 0.125 | – | – | 0.125 | 0.125 | – | – | – | – | – | – | – | CC(C)C[C@@H]1NC(=O)[C@@H](Cc2ccccc2)NC(=O)[C@H](CCN)NC(=O)[C@@H](NC(=O)[C@H](CCN)NC(=O)[C@@H](NC(=O)CN2CCNCC2)C(C)O)CCNC(=O)[C@H](C(C)O)NC(=O)[C@H](CCN)NC(=O)[C@H](CCN)NC1=O (stereo partly shown) [Example 52, (1-piperazine) ethanoyl polymyxin B nonapeptide, trifluoroacetate salt] ({Acetyl(2-(piperazin-1-yl))}-[Thr(3ξ)][Dab][Dab][Dab][dF]L[Dab][Dab][Thr(3ξ)]; lactam 3-C) | effect on thigh burdens (P. aeruginosa ATCC 27853): did not reduce thigh burdens significantly; Log reduction from vehicle (CFU/g) (P. aeruginosa ATCC 27853; 2 mg/kg): −0.14 log CFU/g; Log reduction from vehicle (CFU/g) (P. aeruginosa ATCC 27853; 4 mg/kg): −0.18 log CFU/g

Further lines, the compound ahead of its results:

Row | SMILES | MIC A. baumannii ATCC BAA-747 (Acinetobacter baumannii [1]) [micrograms/mL] | MIC A. baumannii CCUG57249 (Acinetobacter baumannii [1]) [micrograms/mL] | MIC A. baumannii NCTC 13423 (Acinetobacter baumannii [1]) [micrograms/mL] | MIC A. baumannii NCTC 13424 (Acinetobacter baumannii [1]) [micrograms/mL] | MIC E. coli ATCC25922 (Escherichia coli [2]) [micrograms/mL] | MIC E. coli NCTC9001 (Escherichia coli [2]) [micrograms/mL] | MIC K. pneumoniae ATCC-BAA-2146 (Klebsiella pneumoniae [3]) [micrograms/mL] | MIC K. pneumoniae CCUG-59348 (Klebsiella pneumoniae [3]) [micrograms/mL] | MIC P. aeruginosa ATCC 27853 (Pseudomonas aeruginosa [4]) [micrograms/mL] | MIC P. aeruginosa ATCC CRM-9027 (Pseudomonas aeruginosa [4]) [micrograms/mL] | MIC P. aeruginosa ATCC-47 (Pseudomonas aeruginosa [4]) [micrograms/mL] | MIC P. aeruginosa CCUG 59626 (Pseudomonas aeruginosa [4]) [micrograms/mL] | MIC K. pneumoniae ATCC 4352 (Klebsiella pneumoniae [3]) [micrograms/mL] | MIC A. baumannii ATCCBAA-747 (Acinetobacter baumannii [5]) [micrograms/mL] | MIC A. baumannii NCTC 13423 (Acinetobacter baumannii [5]) [micrograms/mL] | MIC E. coli NCTC9001 (Escherichia coli [6]) [micrograms/mL] | MIC K. pneumoniae ATCC 4352 (Klebsiella pneumoniae [7]) [micrograms/mL] | MIC K. pneumoniae ATCC-BAA2146 (Klebsiella pneumoniae [7]) [micrograms/mL] | MIC K. pneumoniae CCUG-59348 (Klebsiella pneumoniae [7]) [micrograms/mL] | MIC P. aeruginosa ATCC-47 (Pseudomonas aeruginosa [8]) [micrograms/mL] | other results
3 | CC(C)C[C@@H]1NC(=O)[C@@H](Cc2ccccc2)NC(=O)[C@H](CCN)NC(=O)[C@@H](NC(=O)[C@H](CCN)NC(=O)[C@@H](NC(=O)CC2(N)CCCCC2)C(C)O)CCNC(=O)[C@H](C(C)O)NC(=O)[C@H](CCN)NC(=O)[C@H](CCN)NC1=O (stereo partly shown) [Example 42, 2-(1-aminocyclohexyl) ethanoyl Polymyxin B nonapeptide TFA salt] (X10-[Thr(3ξ)][Dab][Dab][Dab][dF]L[Dab][Dab][Thr(3ξ)]; lactam 3-C) | 0.125 | ≤0.06 | ≤0.06 | ≤0.06 | ≤0.06 | 0.125 | 0.125 | 4 | 0.125 | 0.25 | ≤0.06 | 0.125 | – | – | – | – | – | – | – | – | effect on thigh burdens (P. aeruginosa ATCC 27853): did not reduce thigh burdens significantly; Log reduction from vehicle (CFU/g) (P. aeruginosa ATCC 27853; 2 mg/kg): −0.03 log CFU/g; Log reduction from vehicle (CFU/g) (P. aeruginosa ATCC 27853; 4 mg/kg): −0.28 log CFU/g
4 | CC(C)C[C@@H]1NC(=O)[C@@H](Cc2ccccc2)NC(=O)[C@H](CCN)NC(=O)[C@@H](NC(=O)[C@@H](CO)NC(=O)[C@@H](NC(=O)CC(N)C2CCCCC2)[C@@H](C)O)CCNC(=O)[C@H](C(C)O)NC(=O)[C@H](CCN)NC(=O)[C@H](CCN)NC1=O (stereo partly drawn) [Example 48, [3-Amino-3-cyclohexyl-propionyl]-L-Thr-D-Ser-polymyxin B heptapeptide, TFA salt] ({ξβ3hGly(cHex)}-T[dS][Dab][Dab][dF]L[Dab][Dab][Thr(3ξ)]; lactam 3-C) | 0.125 | ≤0.06 | 0.125 | ≤0.06 | 0.25 | 0.5 | 2 | 2 | 1 | 1 | 2 | 1 | 0.25 | 0.25 | 0.25 | >32 | 0.5 | 4 | >32 | 8 | MIC P. aeruginosa ATCC 27853 (Pseudomonas aeruginosa [8]): 4 micrograms/mL; MIC P. aeruginosa ATCCCRM-9027 (Pseudomonas aeruginosa [8]): 0.5 micrograms/mL; MIC P. aeruginosa CCUG 59626 (Pseudomonas aeruginosa [8]): 1 micrograms/mL
5 | CC(C)C[C@H]1NC(=O)[C@H](CCN)NC(=O)[C@@H](NC(=O)[C@H](CCN)NC(=O)[C@@H](NC(=O)CC(N)C2CCCCC2)C(C)O)CCNC(=O)[C@H](C(C)O)NC(=O)[C@H](CCN)NC(=O)[C@H](CCN)NC(=O)[C@H](C(C)O)NC1=O (stereo partly drawn) [Example 50, 3-Amino-3-cyclohexyl propanoyl-Thr-Dab-(cyclo)Dab*-Dab-DLeu-Thr-Dab-Dab-Thr*] ({ξβ3hGly(cHex)}-[Thr(3ξ)][Dab][Dab][Dab][dL][Thr(3ξ)][Dab][Dab][Thr(3ξ)]; lactam 3-C) | 0.125 | 0.125 | 0.125 | 0.125 | ≤0.06 | 0.125 | 0.25 | 8 | 0.125 | 0.125 | 0.25 | 0.25 | ≤0.06 | 4 | 2 | >32 | 4 | 16 | >32 | 32 | MIC A. baumannii ATCC13424 (Acinetobacter baumannii [5]): 4 micrograms/mL; MIC A. baumannii CCUG57249 (Acinetobacter baumannii [5]): 4 micrograms/mL; MIC E. coli ATCC25922 (Escherichia coli [6]): >32 micrograms/mL; MIC P. aeruginosa ATCC 27853 (Pseudomonas aeruginosa [8]): 32 micrograms/mL; MIC P. aeruginosa ATCCCRM-9027 (Pseudomonas aeruginosa [8]): 0.5 micrograms/mL; MIC P. aeruginosa CCUG 59626 (Pseudomonas aeruginosa [8]): 2 micrograms/mL
